{"source": "patent US8410288B2", "about": "“Polymorphs of Saxagliptin hydrochloride and processes for preparing them” (Teva Pharmaceutical Industries Ltd., priority 2010, dated 2013)", "format_in_all_cases": "physicochemical", "key": {"[1]": {"assay": "Particle morphology (SEM), filterability and powder flowability", "settings": "small plate to rod-shaped particles", "source_text": "Equipment: Jeol JSM-5800 scanning microscope, Sputtered with gold by Edwards S150 sputter coater"}, "[2]": {"assay": "Tapped density measurement", "settings": "450 mg sample; for tapped density: 10 ml graduated cylinder, tapped 200 times; for volume of sample after tapping: 10 ml measuring flask, tapped 200 times with equal force", "experimental": "Samples were tapped the same number of times (200 times) with equal force. Volume of each sample was recorded: (1.4 ml for Form K; 1.6 ml for H2-1)."}, "[3]": {"assay": "Solubility measurement (time to clear solution in distilled water)", "settings": "compared to other solid state forms of Saxagliptin hydrochloride", "experimental": "Equal mass of samples was suspended in equal volume of distilled water. Suspensions were slightly mixed, time was recorded at the moment of clear solution appearance."}}, "note": "Counter-ions that a name gives are not always drawn.", "data": [{"smiles": "N#C[C@@H]1C[C@@H]2C[C@@H]2N1C(=O)[C@@H](N)C12CC3CC(CC(O)(C3)C1)C2", "note": "[form D, Saxagliptin hydrochloride]", "values": [{"measurement": "filterability and powder flowability", "setting": "[1]", "value": "good filterability and powder flowability properties"}]}, {"smiles": "N#C[C@@H]1C[C@@H]2C[C@@H]2N1C(=O)[C@@H](N)C12CC3CC(CC(O)(C3)C1)C2", "note": "[form H2-1, Saxagliptin hydrochloride dihydrate, reference compound]", "values": [{"measurement": "tapped density", "setting": "[2]; hydrochloride dihydrate", "value": "about 0.28 g/ml"}, {"measurement": "volume of sample after tapping", "setting": "[2]; hydrochloride dihydrate", "value": 1.6, "unit": "mL"}]}, {"smiles": "N#C[C@@H]1C[C@@H]2C[C@@H]2N1C(=O)[C@@H](N)C12CC3CC(CC(O)(C3)C1)C2", "note": "[form K, Saxagliptin hydrochloride]", "values": [{"measurement": "tapped density", "setting": "[2]; hydrochloride", "value": "about 0.32 g/ml"}, {"measurement": "volume of sample after tapping", "setting": "[2]; hydrochloride", "value": 1.4, "unit": "mL"}]}, {"smiles": "N#C[C@@H]1C[C@@H]2C[C@@H]2N1C(=O)[C@@H](N)C12CC3CC(CC(O)(C3)C1)C2", "note": "[form Z, Saxagliptin hydrochloride]", "values": [{"measurement": "dissolution rate", "setting": "[3]", "value": "high dissolution rate"}]}]}
